Experimental findings from ChEMBL document CHEMBL1146332, “Parallel solid synthesis of inhibitors of the essential cell division FtsZ enzyme as a new potential class of antibacterials” (Bioorg Med Chem, 2007) are described below.

Active and inactive are the calls of the source. The rule behind the calls is not given here.

Experiment [1] concerns Escherichia coli. The experiment in a line: Antibacterial activity against Escherichia coli ATCC 25922 by disc diffusion method. Type of experiment: functional, organism-based.
Experiment [2] concerns the target T1, Cell division protein FtsZ (Pseudomonas aeruginosa (strain ATCC 15692 / PAO1 / 1C / PRS 101 / LMG12228), UniProt P47204).
T1 sequence (P47204 whole entry): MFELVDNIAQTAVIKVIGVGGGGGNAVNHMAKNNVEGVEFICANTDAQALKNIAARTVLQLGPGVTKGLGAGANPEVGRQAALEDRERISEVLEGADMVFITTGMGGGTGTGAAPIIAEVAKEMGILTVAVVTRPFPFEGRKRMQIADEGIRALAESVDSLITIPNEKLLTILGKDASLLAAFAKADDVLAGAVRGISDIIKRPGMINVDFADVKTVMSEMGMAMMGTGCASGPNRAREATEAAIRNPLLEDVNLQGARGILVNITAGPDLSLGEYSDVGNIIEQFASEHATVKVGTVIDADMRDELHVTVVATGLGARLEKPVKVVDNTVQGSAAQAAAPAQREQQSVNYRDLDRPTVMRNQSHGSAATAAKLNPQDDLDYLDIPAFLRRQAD
The experiment in a line: Inhibition of Pseudomonas aeruginosa FtsZ GTPase activity by spectrophotometric assay.

Experiment [3] concerns Staphylococcus aureus. The experiment in a line: Antibacterial activity against Staphylococcus aureus ATCC 25923 at 20 g/L by disc diffusion method. Type of experiment: functional. The settings on record: for zone of inhibition at 20000 µg/mL: read-out: IZ.

As for `C=CCNC(=O)[C@H](Cn1cnc2c(Cl)nc(N)nc21)NC(=O)N[C@H](C)c1ccccc1`, the outcome in experiment [1] and in experiment [3] was inactive. In experiment [2], this compound showed a 50% inhibitory concentration (IC50) of 1800 µM.

As to `C=CCNC(=O)[C@H](Cn1cnc2c(Cl)nc(N)nc21)NS(=O)(=O)c1ccc(C)cc1`, the outcome in experiment [1] and in experiment [3] was inactive. Besides, the IC50 in experiment [2] was determined as 1700 µM.

As to `NC[C@H]1O[C@H](O[C@H]2[C@H](O)[C@@H](O[C@H]3O[C@H](CO)[C@@H](O)[C@H](N)[C@H]3O)[C@H](N)C[C@@H]2N)[C@H](O)[C@@H](O)[C@@H]1O`, the result in experiment [1] was inactive.

`CCCNC(=O)[C@H](Cn1cnc2c(Cl)nc(N)nc21)NS(C)(=O)=O`: the outcome in experiment [1] was inactive. This compound also returned an IC50 in experiment [2] of 700 µM. In addition, in experiment [3], the zone of inhibition at 20000 µg/mL turned out to be 15 mm.

`Nc1nc(Cl)c2ncn(C[C@H](NS(=O)(=O)c3ccccc3)C(=O)O)c2n1`: the result in experiment [1] and in experiment [3] was inactive. The half-inhibitory concentration (IC50) in experiment [2] came to 1200 µM.

On to `CCCNC(=O)[C@H](Cn1cnc2c(Cl)nc(N)nc21)NS(=O)(=O)c1ccc(C)cc1`, for which the result in experiment [1] was inactive. The concentration for half-maximal inhibition (IC50) in experiment [2] was 2600 µM. Moreover, the zone of inhibition at 20000 µg/mL in experiment [3] came out at 11 mm.

As for `CCCNC(=O)[C@H](Cn1cnc2c(Cl)nc(N)nc21)NC(=O)N[C@H](C)c1ccccc1`, the outcome in experiment [1] was inactive. Besides, the IC50 in experiment [2] worked out at 1800 µM. Besides, the zone of inhibition at 20000 µg/mL in experiment [3] amounted to 11 mm.

Regarding `C=CCNC(=O)[C@H](Cn1cnc2c(Cl)nc(N)nc21)NS(C)(=O)=O`, the outcome in experiment [1] was inactive. Moreover, the midpoint of inhibition in experiment [2], the IC50, lay at 600 µM. Further, the zone of inhibition at 20000 µg/mL in experiment [3] was 28 mm.

With `Nc1nc(Cl)c2ncn(C[C@H](NC(=O)Nc3ccccc3)C(=O)O)c2n1`, the result in experiment [1] was inactive. In experiment [2], this compound returned an IC50 of 450 µM. In addition, the zone of inhibition at 20000 µg/mL in experiment [3] stood at 10 mm.

With `Nc1nc(Cl)c2ncn(C[C@H](NC(=O)Cc3ccccc3)C(=O)O)c2n1`, the result in experiment [1] and in experiment [3] was inactive. Moreover, inhibition in experiment [2] was half-maximal at 2000 µM (IC50).

In general, IC50 refers to the concentration needed to halve the response being measured. Low values mean greater potency, high ones weaker potency.
